Test results as given in patent US7566712B2, “Biaryl piperazinyl-pyridine analogues” (Neurogen Corporation, priority 2003, dated 2009).

Biological target: T1, human capsaicin receptor (Homo sapiens, UniProt Q8NER1)
T1 construct: pBK-CMV expression construct encoding the full length human capsaicin receptor; expressed in transfected cells
Assay: Calcium mobilization assay, determination of antagonist activity (Example 6)
Assay type: cell-based
Conditions: determined as described in Example 6 (calcium mobilization, antagonist activity); Table II
Summary of the method: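 Antagonism measured as inhibition of capsaicin-evoked (final concentration = EC50, from an 8-point 1 nM–3 μM curve) Fluo-3 calcium signal in stable hVR1-HEK293 cells. Test compounds at 1–5 μM final, 0.5–6 h dark preincubation at room temperature. IC50 = concentration giving 50% reduction versus agonist-only response.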

T1 sequence (Q8NER1 whole entry): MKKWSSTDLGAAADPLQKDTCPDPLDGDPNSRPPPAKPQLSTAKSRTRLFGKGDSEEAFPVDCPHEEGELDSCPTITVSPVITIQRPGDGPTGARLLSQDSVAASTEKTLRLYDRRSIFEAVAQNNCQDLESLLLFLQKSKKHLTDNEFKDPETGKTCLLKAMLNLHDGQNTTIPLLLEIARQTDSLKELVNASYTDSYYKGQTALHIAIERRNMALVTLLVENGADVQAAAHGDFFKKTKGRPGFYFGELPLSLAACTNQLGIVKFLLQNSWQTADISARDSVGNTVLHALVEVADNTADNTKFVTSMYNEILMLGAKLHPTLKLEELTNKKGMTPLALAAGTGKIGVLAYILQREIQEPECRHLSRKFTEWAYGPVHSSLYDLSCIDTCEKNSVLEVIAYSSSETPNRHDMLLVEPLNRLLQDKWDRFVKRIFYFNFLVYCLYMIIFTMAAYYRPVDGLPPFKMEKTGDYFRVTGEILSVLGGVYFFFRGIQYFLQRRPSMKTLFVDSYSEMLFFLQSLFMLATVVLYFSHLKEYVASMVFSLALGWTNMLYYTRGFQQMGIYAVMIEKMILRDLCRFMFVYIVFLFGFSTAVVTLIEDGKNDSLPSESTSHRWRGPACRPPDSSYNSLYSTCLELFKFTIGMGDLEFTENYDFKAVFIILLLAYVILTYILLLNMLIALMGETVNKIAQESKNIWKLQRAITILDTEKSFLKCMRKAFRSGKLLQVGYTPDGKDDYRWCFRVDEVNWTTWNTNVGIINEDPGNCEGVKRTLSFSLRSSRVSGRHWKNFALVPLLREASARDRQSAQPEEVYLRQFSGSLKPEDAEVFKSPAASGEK

| IC50 [µM] | Compound |
| --- | --- |
| ≤ 1 | Cc1cc(-c2cc(N3CCN(c4ncccc4C(F)(F)F)CC3)nc(N3CCOCC3)n2)cc(C)n1 [Example 590, 4-(4-(2,6-dimethylpyridin-4-yl)-6-{4-[3-(trifluoromethyl)pyridin-2-yl]piperazin-1-yl}pyrimidin-2-yl)morpholine] |
| ≤ 1 | CCN(CC)c1nc(-c2cc(C)nc(C)c2)cc(N2CCN(c3ncccc3C(F)(F)F)CC2)n1 [Example 591, 4-(2,6-dimethylpyridin-4-yl)-N,N-diethyl-6-{4-[3-(trifluoromethyl)pyridin-2-yl]piperazin-1-yl}pyrimidin-2-amine] |
| ≤ 1 | CC(C)c1cc(-c2cc(N3CCN(c4ncccc4C(F)(F)F)CC3)nc(N3CCOCC3)n2)ccn1 [Example 592, 4-(4-(2-isopropylpyridin-4-yl)-6-{4-[3-(trifluoromethyl)pyridin-2-yl]piperazin-1-yl}pyrimidin-2-yl)morpholine] |
| ≤ 1 | FC(F)(F)c1cccnc1N1CCN(c2cc(-c3cncc(Cl)c3)nc(N3CCOCC3)n2)CC1 [Example 593, 4-(4-(5-chloropyridin-3-yl)-6-{4-[3-(trifluoromethyl)pyridin-2-yl]piperazin-1-yl}pyrimidin-2-yl)morphotine] |
| ≤ 1 | CCN(CC)c1nc(-c2ccc(F)c(C)c2)cc(N2CCN(c3ncccc3C(F)(F)F)CC2)n1 [Example 594, N,N-diethyl-4-(4-fluoro-3-methylphenyl)-6-{4-[3-(trifluoromethyl)pyridin-2-yl]piperazin-1-yl}pyrimidin-2-amine] |
| ≤ 1 | CCN(CC)c1nc(-c2cncc(Cl)c2)cc(N2CCN(c3ncccc3C(F)(F)F)CC2)n1 [Example 595, 4-(5-chloropyridin-3-yl)-N,N-diethyl-6-{4-[3-(trifluoromethyl)pyridin-2-yl]piperazin-1-yl}pyrimidin-2-amine] |
| ≤ 1 | CCN(CC)c1nc(-c2ccc(F)c(F)c2)cc(N2CCN(c3ncccc3C(F)(F)F)CC2)n1 [Example 596, 4-(3,4-difluorophenyl)-N,N-diethyl-6-{4-[3-(trifluoromethyl)pyridin-2-yl]piperazin-1-yl}pyrimidin-2-amine] |
| ≤ 1 | CCN(CC)c1nc(-c2cccc(Cl)c2)cc(N2CCN(c3ncccc3C(F)(F)F)CC2)n1 [Example 597, 4-(3-chlorophenyl)-N,N-diethyl-6-{4-[3-(trifluoromethyl)pyridin-2-yl]piperazin-1-yl}pyrimidin-2-amine] |
| ≤ 1 | CC(C)N1CCN(c2nc(-c3ccc(F)c(Cl)c3)cc(N3CCN(c4ncccc4C(F)(F)F)CC3)n2)CC1 [Example 598, 4-(3-chloro-4-fluorophenyl)-2-(4-isopropylpiperazin-1-yl)-6-{4-[3-(trifluoromethyl)pyridin-2-yl]piperazin-1-yl}pyrimidine] |
| ≤ 1 | CC(C)N(C)c1nc(-c2ccc(F)c(Cl)c2)cc(N2CCN(c3ncccc3C(F)(F)F)CC2)n1 [Example 600, 4-(3-chloro-4-fluorophenyl)-N-isopropyl-N-methyl-6-{4-[3-(trifluoromethyl)pyridin-2-yl]piperazin-1-yl}pyrimidin-2-amine] |
| ≤ 1 | CCN(c1nc(-c2ccc(F)c(Cl)c2)cc(N2CCN(c3ncccc3C(F)(F)F)CC2)n1)C(C)C [Example 601, 4-(3-chloro-4-fluorophenyl)-N-ethyl-N-isopropyl-6-{4-[3-(trifluoromethyl)pyridin-2-yl]piperazin-1-yl}pyrimidin-2-amine] |
| ≤ 1 | Fc1ccc(-c2cc(N3CCN(c4ncccc4C(F)(F)F)CC3)nc(N3CCCCC3)n2)cc1Cl [Example 602, 4-(3-chloro-4-fluorophenyl)-2-piperidin-1-yl-6-{4-[3-(trifluoromethyl)pyridin-2-yl]piperazin-1-yl}pyrimidine] |
| ≤ 1 | Fc1ccc(-c2cc(N3CCN(c4ncccc4C(F)(F)F)CC3)nc(N3CCCC3)n2)cc1Cl [Example 603, 4-(3-chloro-4-fluorophenyl)-2-pyrrolidin-1-yl-6-{4-[3-(trifluoromethyl)pyridin-2-yl]piperazin-1-yl}pyrimidine] |
| ≤ 1 | CCN(CC)c1nc(-c2cccc(C)c2)cc(N2CCN(c3ncccc3C(F)(F)F)CC2)n1 [Example 604, N,N-diethyl-4-(3-methylphenyl)-6-{4-[3-(trifluoromethyl)pyridin-2-yl]piperazin-1-yl}pyrimidin-2-amine] |
| ≤ 1 | CC(C)c1nc(-c2ccc(F)c(Cl)c2)cc(N2CCN(c3ncccc3C(F)(F)F)CC2)n1 [Example 605, 4-(3-chloro-4-fluorophenyl)-2-isopropyl-6-{4-[3-(trifluoromethyl)pyridin-2-yl]piperazin-1-yl}pyrimidine] |
| ≤ 1 | Cc1ccc(-c2cc(N3CCN(c4ncccc4C(F)(F)F)CC3)nc(N3CCOCC3)n2)cn1 [Example 606, 4-(4-(6-methylpyridin-3-yl)-6-{4-[3-(trifluoromethyl)pyridin-2-yl]piperazin-1-yl}pyrimidin-2-yl)morpholine] |
| ≤ 1 | CCN(CC)c1nc(-c2ccc(C)nc2)cc(N2CCN(c3ncccc3C(F)(F)F)CC2)n1 [Example 607, N,N-diethyl-4-(6-methylpyridin-3-yl)-6-{4-[3-(trifluoromethyl)pyridin-2-yl]piperazin-1-yl}pyrimidin-2-amine] |
| ≤ 1 | FC(F)(F)c1cccnc1N1CCN(c2cc(-c3ccc(N4CCCC4)c(Cl)c3)nc(N3CCCC3)n2)CC1 [Example 608, 4-(3-chloro-4-pyrrolidin-1-ylphenyl)-2-pyrrolidin-1-yl-6-{4-[3-(trifluoromethyl)pyridin-2-yl]piperazin-1-yl}pyrimidine] |
| ≤ 1 | CC1CCCN1c1nc(-c2ccc(F)c(Cl)c2)cc(N2CCN(c3ncccc3C(F)(F)F)CC2)n1 (centres unmarked) [Example 609, 4-(3-chloro-4-fluorophenyl)-2-(2-methylpyrrolidin-1-yl)-6-{4-[3-(trifluoromethyl)pyridin-2-yl]piperazin-1-yl}pyrimidine] |
| ≤ 1 | OC[C@H]1CCCN1c1nc(-c2ccc(F)c(Cl)c2)cc(N2CCN(c3ncccc3C(F)(F)F)CC2)n1 [Example 610, [(2R)-1-(4-(3-chloro-4-fluorophenyl)-6-{4-[3-(trifluoromethyl)pyridin-2-yl]piperazin-1-yl}pyrimidin-2-yl)pyrrolidin-2-yl]methanol] |
| ≤ 1 | CC1CCCCN1c1nc(-c2ccc(F)c(Cl)c2)cc(N2CCN(c3ncccc3C(F)(F)F)CC2)n1 (centres unmarked) [Example 611, 4-(3-chloro-4-fluorophenyl)-2-(2-methylpiperidin-1-yl)-6-{4-[3-(trifluoromethyl)pyridin-2-yl]piperazin-1-yl}pyrimidine] |
| ≤ 1 | CC1(C)CCCN(c2nc(-c3ccc(F)c(Cl)c3)cc(N3CCN(c4ncccc4C(F)(F)F)CC3)n2)C1 [Example 612, 4-(3-chloro-4-fluorophenyl)-2-(3,3-dimethylpiperidin-1-yl)-6-{4-[3-(trifluoromethyl)pyridin-2-yl]piperazin-1-yl}pyrimidine] |
| ≤ 1 | CCC1CCCCN1c1nc(-c2ccc(F)c(Cl)c2)cc(N2CCN(c3ncccc3C(F)(F)F)CC2)n1 (centres unmarked) [Example 613, 4-(3-chloro-4-fluorophenyl)-2-(2-ethylpiperidin-1-yl)-6-{4-[3-(trifluoromethyl)pyridin-2-yl]piperazin-1-yl}pyrimidine] |
